This is an account of results in the supplement of paper PMC8837787.

This test deals with Saccharomyces cerevisiae ABC16-Green Monster. The test is described as follows: growth inhibition at single dose (up to 150 µM), below the 70% cut-off for dose-response; higher = more potent. Conditions: 18 h; 30 °C; YPD. The method in brief:
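Drug-sensitive S. cerevisiae ABC16-Green Monster cells were grown overnight in YPD at 30 °C and diluted to log phase (OD600 0.1–0.2). Each library compound was added at one dose of 150 µM to 200 µl culture per well in 96-well plates, in biological duplicates, with untreated cultures alongside. OD600 was read at 0 h and after 18 h at 30 °C. The value is percent growth inhibition; compounds below 70% in both replicates were not taken to dose-response.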

The structures appear in SMILES notation.

Take `CCCCCCCCCCCCCCCCOP(=O)([O-])OCC[N+](C)(C)C`: the “growth inhibition at single dose” value was below 70%.

Turning to `Cc1cccc(-c2nnc(Sc3nc(C)nc4sc5c(c34)CCCC5)n2CC(N)=O)c1`, the “growth inhibition at single dose” value was below 70%.

In the case of `CC(=O)NC[C@H]1CN(c2ccc(N3CCSCC3)c(F)c2)C(=O)O1`, the “growth inhibition at single dose” value was below 70%.

Take `CN1C=C(c2ccc3ccccc3n2)C(c2c[nH]c3ccccc23)c2ccccc21` (configuration not stated): the “growth inhibition at single dose” value is below 70%.

With `O=C(Nc1ccc(CN2CCOCC2)cc1)c1ccc(-c2cc(Cl)ccc2Cl)o1`, the “growth inhibition at single dose” value is below 70%.

On to `COc1cncc(-c2cncc(N3CCN(c4ccncc4)CC3)n2)c1`, for which the “growth inhibition at single dose” value was below 70%.

For the compound `O=C(NCCCc1nc2ccccc2[nH]1)c1[nH]nc2ccccc12`, the “growth inhibition at single dose” value was below 70%.

As to `CC(=O)c1c(C)[nH]c(C(=O)OCCOc2ccccc2)c1C`, the “growth inhibition at single dose” value was below 70%.

Turning to `N#C/C(=N\Nc1cccc(Cl)c1)C(=O)c1cc(-c2ccccc2)c(C(F)(F)F)s1`, the “growth inhibition at single dose” value is below 70%.

As to `CC(C)(C)c1ccc(O)c(CNC2CCCCC2)c1`, the “growth inhibition at single dose” value was below 70%.

With `Cc1ccsc1C(=O)Nc1ccc(N2CCN(C)CC2)cn1`, the “growth inhibition at single dose” value was below 70%.

`O=C(Nc1cccnc1)c1c(O)c2cccc3c2n(c1=O)CC3`: the “growth inhibition at single dose” value was below 70%.

For the compound `CC(C)(C)c1nc(-c2ccc(N)cc2)no1`, the “growth inhibition at single dose” value is below 70%.

For the compound `Cc1cc(NCC(C)C)c2n[nH]c(-c3ccccc3)c2n1`, the “growth inhibition at single dose” value is below 70%.

Take `CCCCc1c(CCC)c(=N)c2ccccc2n1C`: the “growth inhibition at single dose” value is below 70%.

For the compound `Cc1nn2c(=O)c3c([nH]c2c1-c1ccc(Cl)cc1)CCCC3`, the “growth inhibition at single dose” value is below 70%.

For the compound `CNc1nc(SCCS(=O)(=O)c2ccccc2)nc2ccccc12`, the “growth inhibition at single dose” value is below 70%.

Consider `O=C(NC1CCN(c2nccc(C(F)(F)F)n2)CC1)c1cccs1`, for which the “growth inhibition at single dose” value was below 70%.

Regarding `COc1ccc(C2=C(c3ccc(OC)cc3)C3(c4ccccc4)C(=O)C2(c2ccccc2)C2C(=O)N(c4ccc(C)cc4)C(=O)C23)cc1` (configuration not stated), the “growth inhibition at single dose” value was below 70%.

Turning to `CCCCCCc1cc(O)c2c3c(c(=O)oc2c1)CCC(C)C3` (configuration not stated), the “growth inhibition at single dose” value was below 70%.

In the case of `CN(N=O)C1=C(NC2CCCCC2)C(=O)c2ccccc2C1=O`, the “growth inhibition at single dose” value was below 70%.

As to `CCOC(=O)c1cnc2ccc(Cl)cc2c1NCCCN(C)C`, the “growth inhibition at single dose” value was below 70%.

With `O=C(Nc1ccccc1C(=O)Nc1nnc(C(F)(F)F)s1)c1ccccc1`, the “growth inhibition at single dose” value is below 70%.

For `Cc1nc(C(=O)N2CCc3c(c(C(=O)NCc4ccccn4)nn3CCc3ccccc3)C2)cs1`, the “growth inhibition at single dose” value is below 70%.

On to `O=C(N/N=C/c1ccc(O)cc1O)c1ccc[n+]([O-])c1`, for which the “growth inhibition at single dose” value was below 70%.

Regarding `CCN(CC)CCCCCCNc1cc(OC)cc2c(C)ccnc12`, the “growth inhibition at single dose” value is below 70%.

Consider `CN1CCN(c2nccc3nc(-c4ccc(F)c(F)c4)[nH]c23)CC1`, for which the “growth inhibition at single dose” value was below 70%.

Consider `O=C(Nc1cc(S(=O)(=O)N2CCCC2)ccc1O)c1sccc1-n1cccc1`, for which the “growth inhibition at single dose” value was below 70%.

In the case of `C[C@]12CC[C@H](O)C[C@H]1CCC1C2[C@H](O)C[C@]2(C)[C@@H](C3=CC(=O)OC3)CC[C@]12O` (some centres not stated), the “growth inhibition at single dose” value was below 70%.

On to `COc1ccc(C(=O)C(CCC(CNC(C)(C)C)C(=O)c2ccc(OC)cc2)CNC(C)(C)C)cc1` (configuration not stated), for which the “growth inhibition at single dose” value was below 70%.

For the compound `OC(Cn1nnc2ccccc21)Cn1c2ccc(Br)cc2c2cc(Br)ccc21` (configuration not stated), the “growth inhibition at single dose” value was below 70%.

Consider `FC(F)(F)c1nnc2ccc(Cl)nn12`, for which the “growth inhibition at single dose” value is below 70%.

On to `CNc1snc(C)c1C(=O)N(C)Cc1ccc(C(C)C)cc1`, for which the “growth inhibition at single dose” value was below 70%.

`O=C(Nc1ccc(Cl)cc1)N1CCN(c2ccc3nncn3n2)CC1`: the “growth inhibition at single dose” value was below 70%.

As to `O=C(Nc1cccc2c[nH]nc12)c1cnc(OCC(F)(F)F)c(Cl)c1`, the “growth inhibition at single dose” value is below 70%.

As to `Cc1nn(C)c(C)c1NS(=O)(=O)c1c(Cl)cc(-c2ccnc(N3CCNCC3)c2)cc1Cl`, the “growth inhibition at single dose” value is below 70%.

Take `CCc1nn(C)c(C(=O)NCc2ccc(Oc3ccc(C)cc3)cc2)c1Cl`: the “growth inhibition at single dose” value is below 70%.

In the case of `COc1ccc(Nc2nc(NN=Cc3ccc(O)cc3)nc(Nc3ccc([N+](=O)[O-])cc3)n2)cc1`, the “growth inhibition at single dose” value was below 70%.

For the compound `Cc1nc(/C=C/C(=O)Nc2nc3ccccc3[nH]2)cs1`, the “growth inhibition at single dose” value was below 70%.

On to `COc1ccccc1CNC(=O)CCn1c(=O)[nH]c2ccsc2c1=O`, for which the “growth inhibition at single dose” value was below 70%.

`COCC(C)n1c(C)cc(C(=O)COC(=O)c2cccn2C)c1C` (configuration not stated): the “growth inhibition at single dose” value was below 70%.

With `CC1CCCCN1C(=O)NCCc1coc(-c2ccc(F)cc2)n1` (configuration not stated), the “growth inhibition at single dose” value is below 70%.

In the case of `O=c1c2ccccc2cnn1-c1nc2ccccc2s1`, the “growth inhibition at single dose” value was below 70%.

In the case of `Cc1ccc(S(=O)(=O)N2CCN(C(=O)c3cc(-c4ccccc4)[nH]n3)CC2)cc1`, the “growth inhibition at single dose” value was below 70%.

As for `CCOc1cc2c(cc1CNC(=O)c1cnc3cc(C)nn3c1C)OC(C)C2` (configuration not stated), the “growth inhibition at single dose” value was below 70%.

In the case of `C[C@]1(O)C[C@@H](c2nc(-c3ccc4ccc(-c5ccccc5)nc4c3)c3c(N)nccn32)C1`, the “growth inhibition at single dose” value is below 70%.

`CCn1c2ccccc2c2cc(NC(C)C(=O)N3CCNC3=O)ccc21` (configuration not stated): the “growth inhibition at single dose” value was below 70%.

In the case of `CCCCS(=O)(=O)Nc1ccc2cnn(C)c2c1`, the “growth inhibition at single dose” value is below 70%.

Take `COCCNC(=O)C1CCN(C(C(=O)c2c[nH]c3ccccc23)c2ccccc2)CC1` (configuration not stated): the “growth inhibition at single dose” value is below 70%.

On to `Nc1c(C(=O)c2ccc3c(c2)NC(=O)CO3)sc2c1c(=O)[nH]c(=O)n2Cc1ccccc1`, for which the “growth inhibition at single dose” value was below 70%.

As for `CCOc1ccccc1C(=O)Nc1cccc(-c2nc3ncccn3c2C)c1`, the “growth inhibition at single dose” value is below 70%.

Take `Cn1/c(=N/C(=O)c2ccc(=O)[nH]c2)sc2ccccc21`: the “growth inhibition at single dose” value was below 70%.

As for `CCCS(=O)(=O)N1CCC(CO)(Cc2ccccc2C(F)(F)F)CC1`, the “growth inhibition at single dose” value is below 70%.

`N#Cc1ccc(NCCNc2nc3ccccc3s2)nc1`: the “growth inhibition at single dose” value was below 70%.

Regarding `CC(C)(C)c1cc(C(=O)Nc2cccnc2)cc(C(=O)Nc2cccnc2)c1`, the “growth inhibition at single dose” value was below 70%.

For `Cc1cc(C2=NOC(c3cc(Cl)c(F)c(Cl)c3)(C(F)(F)F)C2)ccc1C(=O)NCc1ccc2c(c1)C(C)(C)OB2O` (configuration not stated), the “growth inhibition at single dose” value was below 70%.

With `Nc1ncc(Br)cc1-c1nc2cc(Cl)cnc2[nH]1`, the “growth inhibition at single dose” value is below 70%.

On to `Clc1ccc(CCNc2cc(-c3ccccc3)nc3ncnn23)cc1`, for which the “growth inhibition at single dose” value was below 70%.

As to `Cc1ccc2[nH]c3c(c2c1)CCCC3NCCCN(C)C` (configuration not stated), the “growth inhibition at single dose” value is below 70%.

Turning to `O=[N+]([O-])c1ccc(C=NNc2nc3ccccc3[nH]2)cc1`, the “growth inhibition at single dose” value was below 70%.

As to `CCc1ccc([C@@H]2C[C@H](C(F)(F)F)n3ncc(C(=O)NCc4ccc(OC)cc4)c3N2)cc1`, the “growth inhibition at single dose” value was below 70%.

Regarding `Cc1ccc(S(=O)(=O)/N=C2\C=C3N(CCO)CCOC3(O)c3ccccc32)c(C)c1` (configuration not stated), the “growth inhibition at single dose” value is below 70%.

Regarding `CCCCNc1nc(NC(C)(C)C)nc(NC(C)(C)C)n1`, the “growth inhibition at single dose” value is below 70%.

With `O=C(CCc1ccccc1)c1ccccc1OCC(O)CN1CCCCC1` (configuration not stated), the “growth inhibition at single dose” value is below 70%.

As for `COc1ccc(-c2cc3c(nn2)-c2ccccc2C3=O)cc1`, the “growth inhibition at single dose” value was below 70%.

On to `O=c1nc(C=Cc2ccc(Br)cc2)oc2ccccc12`, for which the “growth inhibition at single dose” value was below 70%.

`CCc1nc2ccc(Cl)cn2c1C(=O)NCc1ccc(N2CCC(c3ccc(OC(F)(F)F)cc3)CC2)cc1`: the “growth inhibition at single dose” value is below 70%.

Turning to `Cc1cc(C)c2cc(C(=O)Nc3ccc(N4CCN(C)CC4)nc3)[nH]c2c1`, the “growth inhibition at single dose” value is below 70%.

For `CN1CCN(S(=O)(=O)c2ccc(-c3ccc4c(Nc5ccc6nn[nH]c6c5)ccnc4c3)cc2)CC1`, the “growth inhibition at single dose” value was below 70%.

For the compound `CCC(Sc1nc2ccccc2o1)C(=O)Nc1nnc(C)s1` (configuration not stated), the “growth inhibition at single dose” value was below 70%.

Regarding `COC(=O)c1ccc(CNC(=O)NCCN2c3ccccc3CCC2C)cc1` (configuration not stated), the “growth inhibition at single dose” value is below 70%.

With `CC1(C)Cc2c(c(N3CCOCC3)nc3snc(Br)c23)CO1`, the “growth inhibition at single dose” value was below 70%.

As to `O=C(Nc1nc2ccc(OC(F)(F)F)cc2s1)c1cnccn1`, the “growth inhibition at single dose” value is below 70%.

In the case of `Cc1cc(NC(=O)c2cccc(S(=O)(=O)N3c4ccccc4CC3C)c2)no1` (configuration not stated), the “growth inhibition at single dose” value was below 70%.

With `Cc1cc(C)c(C#N)c(SCC(=O)N(C)Cc2cnn(-c3ccccc3)c2)n1`, the “growth inhibition at single dose” value was below 70%.

Turning to `Cc1cc(C(=O)C(C)Sc2nnnn2C2CC2)c(C)n1-c1ccccc1` (configuration not stated), the “growth inhibition at single dose” value was below 70%.

Take `O=C(Nc1ccc(N2CCN(c3ncccc3C(F)(F)F)CC2)nc1)c1cccs1`: the “growth inhibition at single dose” value was below 70%.

Take `Cc1nn(Cc2ccccc2)c(Cl)c1/C=C/C(=O)OC(C)C(=O)N1CCCC1` (configuration not stated): the “growth inhibition at single dose” value is below 70%.

Turning to `Cc1ccc(CNC(=O)c2ccc(/C=C3\SC(=O)NC3=O)cc2)cc1`, the “growth inhibition at single dose” value is below 70%.

`O=C(Nc1ccc(-c2nc3cc(NC(=O)c4ccc(Cl)cc4)ccc3[nH]2)cc1)c1ccc(Cl)cc1`: the “growth inhibition at single dose” value is below 70%.

Turning to `COc1cc(C2=NCCN2)ccc1-c1cn(-c2cccc(C3=NCCN3)c2)nn1`, the “growth inhibition at single dose” value is below 70%.

For the compound `COc1ccc(-c2cn3c(C(=O)Nc4ccccc4Cl)c(-c4ccccc4)c4c3n2CCCC4)cc1`, the “growth inhibition at single dose” value was below 70%.
